Experimental data from patent US11110079B2, “Mebendazole polymorph for treatment and prevention of tumors” (THE JOHNS HOPKINS UNIVERSITY, priority 2015, dated 2021).
Entries after “also recorded” stand apart in the source; their conditions may differ. Read-outs that look alike come from different tables or passages of the source. Each block holds one compound with its values, some of them ahead of it.

Legend:
GL261-luc glioma = details: for survival of GL261 glioma-bearing mice: other benzimidazoles, even at higher doses than MBZ; for difference in survival (Mantel-Cox test): GL261-luc glioma-bearing mice, 100 mg/kg oral gavage from day 5; for mean survival: GL261 model, MBZ polymorphs 50 mg/kg oral
Experimental: All animal studies were approved by the Animal Care and Use Committee (ACUC) of the Johns Hopkins University. The intracranial implantation of GL261-luc in the frontal lobe and D425 cells in the cerebellum of the mouse brain followed the procedure described before (3,4). […] MBZ and other benzimidazoles were prepared by either mixing the power with PBS and sesame oil (1:1, v:v) (Sigma) or by grinding the tablets to powder and resuspending in the aforementioned PBS/sesame oil mixture. Elacridar was prepared as a 10 mg/ml suspension in 0.5% hydroxypropylmethylcellulose and 0.5% Tween 80 in PBS similarly as described before (15).
Animal survival data were analyzed by GraphPad Prism 5.0. The p-values were determined by a Mantel-Cox test. A p-value under 0.05 was accepted as statistically significant.

D425 medulloblastoma = assay: Orthotopic D425 medulloblastoma xenograft model (survival); format: in vivo, mouse; details: D425 model, elacridar alone; marginal
Experimental: The intracranial implantation of GL261-luc in the frontal lobe and D425 cells in the cerebellum of the mouse brain followed the procedure described before (3,4). Five days after tumor implantation, mice were gavaged with MBZ or the other benzimidazoles at 50 mg/kg five days a week. MBZ and other benzimidazoles were prepared by either mixing the power with PBS and sesame oil (1:1, v:v) (Sigma) or by grinding the tablets to powder and resuspending in the aforementioned PBS/sesame oil mixture. Elacridar was prepared as a 10 mg/ml suspension in 0.5% hydroxypropylmethylcellulose and 0.5% Tween 80 in PBS similarly as described before (15).

GL261 glioma cells = assay: Cytotoxicity in cultured GL261 cells (colorimetric assay, 72 h); format: cell-based, mouse; details: for cytotoxicity in GL261 cells: in vitro
Experimental: Cells were incubated with the indicated drugs for 72 h and the living cells were measured by the colorimetric assay.
(3,14) GL261 and D425 cells were maintained in DMEM media supplemented with 10% fetal bovine serum and antibiotics at 37° C. in humidified air containing 5% CO2.

in vivo = details: for mean B/P ratio: 6 h
Experimental: (§1) Female C57BL6 mice, 5-6 weeks of age, were purchased from NCl. Animal experimentation was conducted under an approved IACUC protocol and complied with local and national guidelines. All MBZ polymorphs and tablets were administered by oral gavage at a dose of 50 mg/kg. Elacridar was administered by oral gavage at 50 mg/kg 2 hours prior to the administration of MBZ-C. Mice (3 animals/time point) were first anesthetized via intraperitoneal injection of 60 μl of a stock solution containing ketamine hydrochloride (75 mg/kg) (100 mg/ml; Ketamine HCl; Abbot Laboratories, Chicago, Ill., USA) and xylazine (7.5 mg/kg) (100 mg/ml; Xyla-ject®, Phoenix Pharmaceutical, St. Joseph, Mo., USA) in a sterile 0.9% NaCl solution. Then the blood samples were taken by puncturing and aspiring from the left heart ventricle. Blood samples were mixed with 5 mM EDTA and centrifuged at 10000 g for 5 min to obtain the plasma for further analysis.
For brain distribution studies, mice were perfused under anesthesia with 20 ml ice-cold saline supplemented with 20 μl of 0.02% heparin by injecting slowly into the left heart ventricle using a 20 gauge needle. The right atrium was cut open before to allow the blood outflow. The yellow color of kidney indicated a good perfusion quality that was essential to deplete blood from the brain tissue. In GL261 tumor-bearing mice, GL261 tumor was distinguished from the normal brain by easily recognizable differences in color and shade. GL261 tumor was separated with a scalpel and the normal brain tissue was cut from the contralateral hemisphere. All brain samples were weighed and stored at −80° C. before processing.
(§2) Blood, brain and brain tumor tissues were harvested as a function of time after MBZ administration. To compare the pharmacokinetics of MBZ polymorphs, three cohorts of mice each were administered a single dose of 50 mg/kg by oral gavage. For the initial comparison studies, plasma samples were obtained at 1, 2.5, 4, 6, 8, 15, and 24 hours after MBZ administration while brain tissue was only collected at 6 hours. For the comparison studies of polymorph C with or without ELD, plasma and brain tissue samples were obtained at 2.5, 4, and 8 hours after MBZ administration. Brain tumor tissue samples were also obtained for polymorph C alone.
(§3) MBZ and the two metabolites, 2-amino-5-benzoyl-benzimidazole (MBZ-NH2, CAS 52329-60-9) and rac dihydro mebendazole (MBZ-OH, CAS 60254-95-7), were quantified in plasma, brain and brain tumor tissue. Tissue homogenates were prepared at a concentration of 200 mg/ml in plasma prior to extraction. Mebendazole and metabolites were extracted from 50 μl of plasma or tissue homogenates with 0.1 ml of methanol containing 0.5 μg/ml of the internal standard A620223.69. After centrifugation, the supernatant (60 μl) was mixed with water (40 μl) and then transferred into autosampler vials. […] The analytes were monitored using an AB Sciex triple quadrapole™ 5500 mass-spectrometric detector (Applied Biosystems, Foster City, Calif., USA) using electrospray ionization operating in positive mode. The spectrometer was programmed to allow the [MH+] ions of MBZ, MBZ-NH2, MBZ-OH, and A620223.69 at m/z 296.0, 238.0, 298.0, and 287.2, respectively to pass through the first quadrupole (Q1) and into the collision cell (Q2). The daughter ions for MBZ (m/z 263.9), MBZ-NH2 (m/z 105.1), MBZ-OH (m/z 266.0), and A620223.69 (m/z 124.1) were monitored through the third quadrupole (Q3). Calibration curves for MBZ and metabolites were computed using the area ratio peak of the analysis to the internal standard by using a quadratic equation with a 1/x weighting function over the range of 5 to 500 ng/ml (MBZ) and 1 to 500 ng/ml (metabolites) with dilutions of up to 1:100 (v:v). If one or more concentrations were below limits of quantification, a value of ½ the limit of quantification was assigned for pharmacokinetic calculations.

[1] = in vivo, po, 50 mg/kg
Experimental: as §1, §2
as §3, with “calculations. If two consecutive time points were below limits of quantification, the last one was excluded from the analysis.” for “calculations.”
Mean plasma and brain concentrations were calculated at each time point for both MBZ and its metabolites. 1.045 g/ml was used as the average wet rodent brain tissue density (16). Pharmacokinetic parameters were calculated from mean MBZ and its metabolites concentration-time data using noncompartmental methods as analyzed in Phoenix® WinNonlin® version 6.3 (Pharsight Corp., Mountain View, Calif.). Cmax and Tmax were the observed values from the mean concentration data. The AUClast was calculated using the log-linear trapezoidal method. λz was determined from the slope of the terminal phase of the concentration-time profile. The terminal half-life (T1/2) was determined by dividing 0.693 by λz. […]

[2] = female, C57BL6, mouse, po, 50 mg/kg

SMILES: CCCSc1ccc2nc(NC(=O)OC)[nH]c2c1 [albendazole]
survival of GL261 glioma-bearing mice (GL261-luc glioma): failed or only marginally improved the survival

SMILES: COc1cc2c(cc1OC)CN(CCc1ccc(NC(=O)c3cccc4c(=O)c5cccc(OC)c5[nH]c34)cc1)CC2 [elacridar]
survival benefit (D425 medulloblastoma): 9 days
median survival (GL261-luc glioma; GL261, single agent 50 mg/kg, control 29.5 days): 34 days
IC50 (GL261 glioma cells; GL261 mouse glioma cells): 5.8 µM

SMILES: COC(=O)Nc1nc2cc(C(=O)c3ccc(F)cc3)ccc2[nH]1 [flubendazole]
difference in survival (Mantel-Cox test) (GL261-luc glioma): not significant
survival of GL261 glioma-bearing mice (GL261-luc glioma): failed or only marginally improved the survival

SMILES: c1ccc2[nH]c(-c3cscn3)nc2c1 [thiabendazole, Thiabendazole]
difference in survival (Mantel-Cox test) (GL261-luc glioma): not significant
survival of GL261 glioma-bearing mice (GL261-luc glioma): failed or only marginally improved the survival

B/P ratio of MBZ-NH2 (in vivo; female, C57BL6, mouse): 0.12
elevation of B/P ratio by co-administration of elacridar (in vivo; female, C57BL6, mouse): 2.5 folds
elevation of AUC0-8 h by co-administration of elacridar (in vivo; mouse): 2.4 folds
brain levels of metabolite in terms of Cmax and AUC0-24 h (in vivo; mouse, po, 50 mg/kg): much lower levels than MBZ-OH
plasma AUC0-24 h of metabolite ([1]; female, C57BL6, mouse): 10,516 h*ng/ml
SMILES: Nc1nc2ccc(C(=O)c3ccccc3)cc2[nH]1 [MBZ-NH2, 2-amino-5-benzoyl-benzimidazole]
cytotoxicity in GL261 cells (GL261 glioma cells): only a marginal cytotoxicity; also recorded: least cytotoxic
distribution in GL261 brain tumor vs contralateral normal brain tissue (in vivo; [2]): preferentially accumulated in the GL261 brain tumor
distribution in GL261 brain tumor vs contralateral normal brain tissue (in vivo; mouse, po, 50 mg/kg): significantly higher levels than in the contralateral brain

plasma AUC0-24 h of metabolite ([1]; mouse): 5,781 h*ng/ml
SMILES: COC(=O)Nc1nc2ccc(C(O)c3ccccc3)cc2[nH]1 (racemic) [MBZ-OH, rac dihydro mebendazole]

SMILES: COC(=O)Nc1nc2ccc(Sc3ccccc3)cc2[nH]1 [fenbendazole]
difference in survival (Mantel-Cox test) (GL261-luc glioma): not significant
survival of GL261 glioma-bearing mice (GL261-luc glioma): failed or only marginally improved the survival

SMILES: COC(=O)Nc1nc2ccc(C(=O)c3ccccc3)cc2[nH]1 [MBZ-B, Mebendazole]
toxicity in GL261 glioma-bearing mice (GL261-luc glioma; 50 mg/kg oral): presumably died from drug toxicity
treatment-related death among 6 treated mice (GL261-luc glioma; GL261 glioma-bearing mice, 50 mg/kg oral): 1
mean survival (GL261-luc glioma): 45 days
cytotoxicity in GL261 cells (GL261 glioma cells): equal cytotoxicity
mean B/P ratio (in vivo; [2]): 0.64
plasma AUC0-24 h ([1]; female, C57BL6, mouse): 26,474 h*ng/ml
plasma AUC0-24 h relative to MBZ-C ([1]; female, C57BL6, mouse): 165%

SMILES: COC(=O)Nc1nc2ccc(C(=O)c3ccccc3)cc2[nH]1 [MBZ-A, Mebendazole]
cytotoxicity in GL261 cells (GL261 glioma cells): equal cytotoxicity
mean B/P ratio (in vivo; [2]): 0.32
plasma AUC0-24 h ([1]; female, C57BL6, mouse): 3,052 h*ng/ml
plasma AUC0-24 h relative to MBZ-C ([1]; female, C57BL6, mouse): 19%

SMILES: COC(=O)Nc1nc2cc([S+]([O-])c3ccccc3)ccc2[nH]1 (stereo not drawn) [oxifendazole]
difference in survival (Mantel-Cox test) (GL261-luc glioma): not significant
survival of GL261 glioma-bearing mice (GL261-luc glioma): failed or only marginally improved the survival

SMILES: COC(=O)Nc1nc2ccc(C(=O)c3ccccc3)cc2[nH]1 [MBZ-C, Mebendazole]
mean survival (GL261-luc glioma): 48.5 days
efficacy in GL261 glioma model (GL261-luc glioma; oral gavage 50 mg/kg, from day 5 after implantation, 50 mg/kg): best efficacy
cytotoxicity in GL261 cells (GL261 glioma cells): equal cytotoxicity
Kp (in vivo; female, C57BL6, mouse, AUC0-24h B/P ratio): 0.82
brain Cmax, equivalent concentration (in vivo; female, C57BL6, mouse, po): 7.1 µM
peak brain concentration (in vivo; [2]): 2,016 ng/g
Kp at 8 h (in vivo; female, C57BL6, mouse, po, 50 mg/kg, brain/plasma (B/P) ratio on average): 0.75
change of brain concentration of MBZ in terms of AUC0-8h (in vivo; mouse, po, 50 mg/kg): did not significantly change
time of peak brain concentration after oral administration (in vivo; mouse, po, 50 mg/kg): Four
plasma AUC0-24 h ([1]; female, C57BL6, mouse): 16,039 h*ng/ml
